Results taken from ChEMBL document CHEMBL1201862, “PubChem BioAssay data set” (2004).
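Step 1: Grow cells in 96-well plates. Step 2: Expose to compound for 48 hours at 5 concentrations. Step 3: Interpolate endpoints linearly; if unreached, use highest concentration. GI50 is the concentration that inhibits growth by half.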 Calls of active or inactive are those of the source. No stated cut-off is given here; in the data, active = GI50 up to about 1.1 µM and inactive = higher.

Legend:
Assay in all cases: inhibition of tumour cell growth, NCI panel, 48 h
A498 = test system: A498
A549 = test system: A549
BT-549 = test system: BT-549
CAKI-1 = test system: CAKI-1
HL-60 = test system: HL-60
HOP-92 = test system: HOP-92
MDA-MB-435 = test system: MDA-MB-435
MOLT-4 = test system: MOLT-4
Malme-3M = test system: Malme-3M
NCI-H460 = test system: NCI-H460
PC-3 = test system: PC-3
RPMI-8226 = test system: RPMI-8226
SF-295 = test system: SF-295
SF-539 = test system: SF-539
SK-MEL-5 = test system: SK-MEL-5
SNB-75 = test system: SNB-75
SW-620 = test system: SW-620
UACC-62 = test system: UACC-62
CCRF-CEM = test system: CCRF-CEM
NCI-H23 = test system: NCI-H23

| Compound | GI50 (A498) | GI50 (A549) | GI50 (BT-549) | GI50 (CAKI-1) | GI50 (HL-60) | GI50 (HOP-92) | GI50 (MDA-MB-435) | GI50 (MOLT-4) | GI50 (Malme-3M) | GI50 (NCI-H460) | GI50 (PC-3) | GI50 (RPMI-8226) | GI50 (SF-295) | GI50 (SF-539) | GI50 (SK-MEL-5) | GI50 (SNB-75) | GI50 (SW-620) | GI50 (UACC-62) | GI50 (CCRF-CEM) | GI50 (NCI-H23) |
| --- | --- | --- | --- | --- | --- | --- | --- | --- | --- | --- | --- | --- | --- | --- | --- | --- | --- | --- | --- | --- |
| Cc1cc(Cc2c(C)c(C)c(Cc3cc(C)cc(C(C)(C)C)c3O)c(C)c2C)c(O)c(C(C)(C)C)c1 | > 100 µM (inactive) | > 100 µM (inactive) | > 100 µM (inactive) | > 100 µM (inactive) | 14.4 µM (inactive) | > 100 µM (inactive) | > 100 µM (inactive) | 1.56 µM (inactive) | > 100 µM (inactive) | > 100 µM (inactive) | > 100 µM (inactive) | > 100 µM (inactive) | > 100 µM (inactive) | > 100 µM (inactive) | > 100 µM (inactive) | > 100 µM (inactive) | > 100 µM (inactive) | > 100 µM (inactive) |  |  |
| O=C(Nc1ccc2c(c1)oc(=O)c1ccccc12)C(Cl)Cl | > 100 µM (inactive) | 39.1 µM (inactive) | > 100 µM (inactive) | > 100 µM (inactive) | 12.2 µM (inactive) | > 100 µM (inactive) | > 100 µM (inactive) | 54.7 µM (inactive) | > 100 µM (inactive) | 27.6 µM (inactive) | 76.4 µM (inactive) | 14.3 µM (inactive) | > 100 µM (inactive) | 69.7 µM (inactive) | > 100 µM (inactive) | > 100 µM (inactive) | > 100 µM (inactive) | 36.6 µM (inactive) | > 100 µM (inactive) | > 100 µM (inactive) |
| COc1nn(Cc2ccccn2)c2ccc([N+](=O)[O-])cc12 | 30.3 µM (inactive) | > 100 µM (inactive) | 44.4 µM (inactive) | 51.2 µM (inactive) | 20.2 µM (inactive) | 20.7 µM (inactive) | 32.7 µM (inactive) | 53.1 µM (inactive) | > 100 µM (inactive) | > 100 µM (inactive) | > 100 µM (inactive) | 54.8 µM (inactive) | > 100 µM (inactive) | 27.4 µM (inactive) | 30.5 µM (inactive) | 17.3 µM (inactive) | 63 µM (inactive) | 38.3 µM (inactive) | 76.2 µM (inactive) | > 100 µM (inactive) |
| CC1=NC(C)(C)[N+]([O-])=C1 | > 10 µM (inactive) | > 10 µM (inactive) | > 10 µM (inactive) | > 10 µM (inactive) | > 10 µM (inactive) | > 10 µM (inactive) | > 10 µM (inactive) | > 10 µM (inactive) | 8.73 µM (inactive) | > 10 µM (inactive) | > 10 µM (inactive) | > 10 µM (inactive) | > 10 µM (inactive) | > 10 µM (inactive) | > 10 µM (inactive) | 0.0718 µM (active) | > 10 µM (inactive) | > 10 µM (inactive) | > 10 µM (inactive) | > 10 µM (inactive) |
| C=C1CC(C)(c2ccc(Nc3nc4ccccc4c4occc34)cc2)OC1=O (configuration not stated) | 18.9 µM (inactive) | 4.52 µM (inactive) | 2.37 µM (inactive) | 15.8 µM (inactive) | 2.07 µM (inactive) | 1.95 µM (inactive) | 1.91 µM (inactive) | 1.82 µM (inactive) | 17.2 µM (inactive) | 14.7 µM (inactive) | 4.36 µM (inactive) | 1.69 µM (inactive) | 12.8 µM (inactive) | 2 µM (inactive) | 5.09 µM (inactive) | 1.92 µM (inactive) |  |  | 1.12 µM (active) | 1.22 µM (inactive) |
| O=C1Oc2ccccc2C(=O)/C1=C1/C=C(c2ccccc2)SS1 | > 100 µM (inactive) | > 100 µM (inactive) | > 100 µM (inactive) | 49.2 µM (inactive) | 21.9 µM (inactive) | 15.6 µM (inactive) | 48.9 µM (inactive) | 30.4 µM (inactive) | 96.4 µM (inactive) | > 100 µM (inactive) | > 100 µM (inactive) | > 100 µM (inactive) | > 100 µM (inactive) | > 100 µM (inactive) | > 100 µM (inactive) | > 100 µM (inactive) | > 100 µM (inactive) | 82.8 µM (inactive) | 22.6 µM (inactive) | > 100 µM (inactive) |
| CSc1n[n+](C)cc(N)c1N | > 100 µM (inactive) | > 100 µM (inactive) | 87.1 µM (inactive) | > 100 µM (inactive) | 51.9 µM (inactive) | 17.8 µM (inactive) | > 100 µM (inactive) | > 100 µM (inactive) | 36.1 µM (inactive) |  | > 100 µM (inactive) | > 100 µM (inactive) | > 100 µM (inactive) | > 100 µM (inactive) | > 100 µM (inactive) | > 100 µM (inactive) | > 100 µM (inactive) | > 100 µM (inactive) | > 100 µM (inactive) | > 100 µM (inactive) |
| Cc1ccc(Nc2nc(=S)[nH]c3[nH]ncc23)cc1 | 37 µM (inactive) | 61.2 µM (inactive) | > 100 µM (inactive) | 58.1 µM (inactive) | 48.8 µM (inactive) | > 100 µM (inactive) | 39.8 µM (inactive) | > 100 µM (inactive) | > 100 µM (inactive) | 64.6 µM (inactive) | 51.2 µM (inactive) | 24 µM (inactive) | 71.3 µM (inactive) | 65.8 µM (inactive) | 37.6 µM (inactive) | > 100 µM (inactive) | > 100 µM (inactive) | 37.7 µM (inactive) | 1.39 µM (inactive) | 59.7 µM (inactive) |
| CCC1CCN/C(=N/S(=O)(=O)c2cc(C)c(Cl)cc2S)N1 (configuration not stated) | > 100 µM (inactive) | > 100 µM (inactive) | 17.7 µM (inactive) | 30 µM (inactive) | 30.8 µM (inactive) | 50.9 µM (inactive) | 22.9 µM (inactive) | 21.7 µM (inactive) | 37.2 µM (inactive) | 8.2 µM (inactive) | 50.2 µM (inactive) | 24.2 µM (inactive) |  | 29.4 µM (inactive) | > 100 µM (inactive) | 40 µM (inactive) | 28.7 µM (inactive) | 14 µM (inactive) | 25.9 µM (inactive) |  |
| CCNC(=O)Nc1cccc(NC(=O)NCC)n1 | 60.1 µM (inactive) | > 100 µM (inactive) | > 100 µM (inactive) | 75.2 µM (inactive) | 34.1 µM (inactive) | 50.4 µM (inactive) | > 100 µM (inactive) | > 100 µM (inactive) | > 100 µM (inactive) | > 100 µM (inactive) | 59.3 µM (inactive) |  | > 100 µM (inactive) | > 100 µM (inactive) | > 100 µM (inactive) | 24.5 µM (inactive) | > 100 µM (inactive) | 36 µM (inactive) | > 100 µM (inactive) | > 100 µM (inactive) |
| Clc1ccc(C2ON=C(c3ccccc3)N2C23CC4CC(CC(C4)C2)C3)cc1 (configuration not stated) | > 10 µM (inactive) | > 10 µM (inactive) | > 10 µM (inactive) | > 10 µM (inactive) | > 10 µM (inactive) | > 10 µM (inactive) | > 10 µM (inactive) | 9.66 µM (inactive) | > 10 µM (inactive) | > 10 µM (inactive) | > 10 µM (inactive) | > 10 µM (inactive) | > 10 µM (inactive) | > 10 µM (inactive) | > 10 µM (inactive) | > 10 µM (inactive) | > 10 µM (inactive) | > 10 µM (inactive) | > 10 µM (inactive) | > 10 µM (inactive) |
| C=C(C)C(=O)OC1C(C(C)CCCO)=C(CO)CC2OC(=O)C(=C)C21 (configuration not stated) | 17.1 µM (inactive) | 23.2 µM (inactive) | 14 µM (inactive) | 17.1 µM (inactive) | 6.41 µM (inactive) | 16.7 µM (inactive) | 19.9 µM (inactive) | 18.4 µM (inactive) | 0.509 µM (active) | 16.4 µM (inactive) | 24.4 µM (inactive) | 17.1 µM (inactive) | 47.2 µM (inactive) | 23 µM (inactive) | 14 µM (inactive) | 10.4 µM (inactive) | 14.7 µM (inactive) | 14.9 µM (inactive) | 12.6 µM (inactive) | 19.3 µM (inactive) |
| c1ccc(C2C3=C(c4ccccc4CC3)N3c4cc5c(cc4=NC34CCCCC24)Nc2ccccc2N=5)cc1 (configuration not stated) | 7.38 µM (inactive) | > 10 µM (inactive) | > 10 µM (inactive) | > 10 µM (inactive) | 3.77 µM (inactive) | 7.64 µM (inactive) | 7.28 µM (inactive) | 2.4 µM (inactive) | > 10 µM (inactive) | 5.14 µM (inactive) | 6.92 µM (inactive) | 5.11 µM (inactive) | > 10 µM (inactive) | > 10 µM (inactive) | > 10 µM (inactive) | 9.27 µM (inactive) | 9.64 µM (inactive) | > 10 µM (inactive) | 1.67 µM (inactive) | 9.2 µM (inactive) |
| COc1cccc(-c2cc(O)c3cccnc3n2)c1 | 0.516 µM (active) | 0.102 µM (active) | > 100 µM (inactive) | 0.0984 µM (active) | 0.0261 µM (active) | 0.0776 µM (active) | 0.0164 µM (active) | 0.221 µM (active) | > 100 µM (inactive) | 0.1 µM (active) | 0.158 µM (active) | 0.195 µM (active) | 0.075 µM (active) | 0.102 µM (active) | 0.0546 µM (active) | 0.0857 µM (active) | 0.0809 µM (active) | 0.0662 µM (active) | 0.0603 µM (active) | 0.204 µM (active) |
